How the values were obtained:
Details in all cases: treatment: drug alone; 5 days
[1] = tested on: SN12C; assay: AUC of dose-response viability curve, drug alone (arbitrary (AUC of normalised viability)); higher = less growth inhibition
Procedure: (§1)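 Primary HTS: 8 RCC cell lines treated with 8 doses (up to 10 uM) of each library drug alone for 5 days; viability read by CellTiter-Glo and normalised to DMSO. GI50 was fitted with XLfit (4-parameter), AUC is the area under the dose-response curve, and minimum viability is the lowest fraction of DMSO viability across doses.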

[2] = tested on: UO-31; assay: as above
Procedure: as §1

[3] = tested on: CAKI-1; assay: as above
Procedure: as §1

[4] = tested on: 769-P; assay: as above
Procedure: as §1

[5] = tested on: ACHN; assay: as above
Procedure: as §1

[6] = tested on: A498; assay: as above
Procedure: as §1

[7] = tested on: 786-O; assay: as above
Procedure: as §1

[8] = tested on: TK-10; assay: as above
Procedure: as §1

[9] = tested on: SN12C; assay: GI50, drug alone; higher = less potent
Procedure: as §1

[10] = tested on: UO-31; assay: GI50, drug alone; higher = less potent
Procedure: as §1

[11] = tested on: CAKI-1; assay: GI50, drug alone; higher = less potent
Procedure: as §1

[12] = tested on: 769-P; assay: GI50, drug alone; higher = less potent
Procedure: as §1

[13] = tested on: ACHN; assay: GI50, drug alone; higher = less potent
Procedure: as §1

[14] = tested on: A498; assay: GI50, drug alone; higher = less potent
Procedure: as §1

[15] = tested on: 786-O; assay: GI50, drug alone; higher = less potent
Procedure: as §1

[16] = tested on: TK-10; assay: GI50, drug alone; higher = less potent
Procedure: as §1

[17] = tested on: SN12C; assay: minimum viability across doses, drug alone, relative to DMSO (fraction); higher = less growth inhibition
Procedure: as §1

[18] = tested on: UO-31; assay: as above
Procedure: as §1

[19] = tested on: CAKI-1; assay: as above
Procedure: as §1

[20] = tested on: 769-P; assay: as above
Procedure: as §1

[21] = tested on: ACHN; assay: as above
Procedure: as §1

[22] = tested on: A498; assay: as above
Procedure: as §1

[23] = tested on: 786-O; assay: as above
Procedure: as §1

[24] = tested on: TK-10; assay: as above
Procedure: as §1

Row | GI50, drug alone [13] [µM] | GI50, drug alone [15] [µM] | Compound | AUC of dose-response viability curve [1] | AUC of dose-response viability curve [2] | AUC of dose-response viability curve [3] | AUC of dose-response viability curve [4] | AUC of dose-response viability curve [5] | AUC of dose-response viability curve [6] | AUC of dose-response viability curve [7] | AUC of dose-response viability curve [8] | GI50, drug alone [9] [µM] | GI50, drug alone [10] [µM] | GI50, drug alone [11] [µM] | GI50, drug alone [12] [µM] | GI50, drug alone [14] [µM] | GI50, drug alone [16] [µM] | minimum viability across doses [17] | minimum viability across doses [18] | minimum viability across doses [19] | minimum viability across doses [20] | minimum viability across doses [21] | minimum viability across doses [22] | minimum viability across doses [23] | minimum viability across doses [24]
1 | 0.857 | 0.221 | O=C(NOC[C@H](O)CO)c1ccc(F)c(F)c1Nc1ccc(I)cc1F | 2.31 | 2.63 | 1.95 | 2.27 | 2.15 | 2.54 | 1.88 | 2.1 | 2.34 | 3.24 | 0.32 | 0.928 | 3.71 | 0.848 | 0.389 | 0.257 | 0.161 | 0.282 | 0.359 | 0.455 | 0.373 | 0.348
2 | > 10 | > 10 | O=c1cc(N2CCOCC2)oc2c(-c3ccccc3)cccc12 | 3.36 | 3.98 | 3.37 | 3.1 | 2.91 | 3.75 | 2.62 | 2.97 | > 10 | > 10 | > 10 | > 10 | > 10 | > 10 | 0.765 | 0.858 | 0.642 | 0.617 | 0.723 | 0.929 | 0.559 | 0.684
3 | > 10 | > 10 | COc1cccc(-c2cc(=O)c3ccccc3o2)c1N | 3.4 | 5.36 | 3.19 | 3.39 | 3.35 | 4.28 | 2.79 | 3.09 | > 10 | > 10 | > 10 | > 10 | > 10 | > 10 | 0.873 | 1.36 | 0.83 | 0.903 | 0.861 | 1.03 | 0.69 | 0.817
4 | 3.93 | > 10 | C=CC(=O)N1CCC[C@@H](n2nc(-c3ccc(Oc4ccccc4)cc3)c3c(N)ncnc32)C1 | 2.88 | 4.29 | 3.19 | 2.53 | 2.53 | 6.43 | 2.3 | 2.31 | > 10 | > 10 | 7.05 | 1.83 | > 10 | 1.43 | 0.706 | 0.949 | 0.335 | 0.301 | 0.394 | 0.946 | 0.529 | 0.225
5 | 1.98 | 0.3 | Cc1cc(Nc2cc(CN3CCOCC3)c3nc(C)c(Cc4ccc(Cl)cc4F)n3n2)[nH]n1 | 2.89 | 4.69 | 3.03 | 3.12 | 2.79 | 4.33 | 1.96 | 2.8 | 3.84 | 7.64 | 2.28 | 4.13 | 8.52 | 3.03 | 0.216 | 0.0145 | 0.0334 | 0.063 | 0.103 | 0.338 | 0.00692 | 0.0389
6 | 0.179 | 0.163 | COc1ccc(-c2cc3c(C)nc(N)nc3n([C@H]3CC[C@H](OCCO)CC3)c2=O)cn1 | 1.98 | 2.06 | 1.78 | 2.05 | 1.79 | 2.91 | 1.76 | 1.72 | 0.291 | 0.255 | 0.206 | 0.386 | 1.02 | 0.153 | 0.0766 | 0.00736 | 0.0249 | 0.0177 | 0.067 | 0.193 | 0.00335 | 0.0289

More lines, now with the values behind:

Row | Compound | GI50, drug alone [13] [µM] | GI50, drug alone [15] [µM] | AUC of dose-response viability curve [1] | AUC of dose-response viability curve [2] | AUC of dose-response viability curve [3] | AUC of dose-response viability curve [4] | AUC of dose-response viability curve [5] | AUC of dose-response viability curve [6] | AUC of dose-response viability curve [7] | AUC of dose-response viability curve [8] | GI50, drug alone [9] [µM] | GI50, drug alone [10] [µM] | GI50, drug alone [11] [µM] | GI50, drug alone [12] [µM] | GI50, drug alone [14] [µM] | GI50, drug alone [16] [µM] | minimum viability across doses [17] | minimum viability across doses [18] | minimum viability across doses [19] | minimum viability across doses [20] | minimum viability across doses [21] | minimum viability across doses [22] | minimum viability across doses [23] | minimum viability across doses [24]
7 | CN1CCN(c2ccc([N+](=O)[O-])c3no[n+]([O-])c23)CC1 | > 10 | > 10 | 3.13 | 3.8 | 3.27 | 2.59 | 2.98 | 3.92 | 2.38 | 2.91 | > 10 | > 10 | > 10 | > 10 | > 10 | > 10 | 0.832 | 0.867 | 0.881 | 0.865 | 0.822 | 0.889 | 0.536 | 0.3
8 | CC(=O)c1c(C)c2cnc(Nc3ccc(N4CCNCC4)cn3)nc2n(C2CCCC2)c1=O.Cl | 0.36 | 3.88 | 3.17 | 4.32 | 2.44 | 2.31 | 2.04 | 4.74 | 2.8 | 2.43 | 7.21 | > 10 | 0.811 | 0.659 | > 10 | 1.44 | 0.427 | 0.549 | 0.123 | 0.0631 | 0.136 | 0.644 | 0.298 | 0.185
9 | CN(C)C1CCN(C(=O)c2ccc(NC(=O)Nc3ccc(-c4nc(N5CCOCC5)nc(N5CCOCC5)n4)cc3)cc2)CC1 | 0.99 | 0.13 | 1.39 | 2.48 | 2.56 | 3.1 | 2.66 | 1.83 | 1.73 | 2.09 | 0.05 | 0.451 | 1.18 | 5.33 | 0.0932 | 0.472 | 0.112 | 0.0116 | 0.0321 | 0.162 | 0.167 | 0.162 | 0.111 | 0.133
10 | CCN(CC)CCCCNc1ncc2cc(-c3cc(OC)cc(OC)c3)c(NC(=O)NC(C)(C)C)nc2n1 | 0.779 | 2.36 | 2.73 | 3.7 | 2.27 | 3.21 | 2.2 | 3.77 | 2.06 | 2.69 | 8.23 | 7.93 | 0.614 | 9.27 | 6.94 | 4.78 | 0.338 | 0.128 | 0.074 | 0.461 | 0.0868 | 0.265 | 0.00314 | 0.348

— the supplement of paper PMC8149375
